Results on two compounds are retold here after PMC3386246 (PLoS Pathogens, 2012).

What is called inhibition is how much of the control response was suppressed.

The target in this assay is T1, NtrC D54E (Escherichia coli, UniProt P0AFB8, D54E).
T1 construct: gene glnG
In words: biochemical. Conditions: read-out: % inhibition at 250 μM.

T1 sequence (P0AFB8 whole entry D54E): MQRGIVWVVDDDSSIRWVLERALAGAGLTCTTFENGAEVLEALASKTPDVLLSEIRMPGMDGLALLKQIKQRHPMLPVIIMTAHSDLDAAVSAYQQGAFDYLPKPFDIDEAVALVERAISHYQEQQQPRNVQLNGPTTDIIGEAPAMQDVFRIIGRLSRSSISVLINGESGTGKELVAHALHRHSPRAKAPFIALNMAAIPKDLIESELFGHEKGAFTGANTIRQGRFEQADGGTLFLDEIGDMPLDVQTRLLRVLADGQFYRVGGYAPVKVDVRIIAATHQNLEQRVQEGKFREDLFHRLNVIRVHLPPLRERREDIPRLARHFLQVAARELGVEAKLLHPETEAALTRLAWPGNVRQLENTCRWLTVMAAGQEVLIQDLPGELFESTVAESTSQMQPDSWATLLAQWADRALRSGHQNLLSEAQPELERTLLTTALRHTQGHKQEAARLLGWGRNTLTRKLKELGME

Consider `CC(C)COC(=O)CSc1n[nH]c(=O)[nH]c1=O` [compound 11], for which the inhibition at 250 µM was around 10%. For `CC(C)(C)COC(=O)CSc1n[nH]c(=O)[nH]c1=O` [compound 12] the value was around 10%.
